Experimental findings from PubChem BioAssay (NCI) are described below.

SMILES strings stand for the structures.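 Where inhibition never reached the appropriate level, the endpoint shown equals the highest concentration tested. Otherwise, values were interpolated linearly from a five-concentration, 48-hour dose response in 96-well plates. The concentration for 50% growth inhibition is given as GI50. TGI: total growth inhibition.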

Some test systems named below: SF-539 CNS; SW-620 colon; CAKI-1 renal; HOP-92 NSCLC; NCI-H522 lung; HOP-62 NSCLC; RXF 393 renal; NCI-H460 lung; MDA-MB-231 breast.
Holding throughout (assay): growth of human tumour cells (NCI), 48 h

As for `COc1ccc2oc(-c3ccc(OC)c(OC)c3OC)cc(=O)c2c1`, the TGI is greater than 100 µM with SF-539 CNS; greater than 100 µM with SW-620 colon; greater than 100 µM in the experiment on CAKI-1 renal; greater than 100 µM in the experiment with HOP-92 NSCLC; 68.3 µM with NCI-H522 lung; greater than 100 µM in the experiment with HOP-62 NSCLC. This compound also came in with a TGI with RXF 393 renal of 93.8 µM.
On to `Cc1nc(/C=C2\C(=O)C=Cc3ccccc32)c(O)o1`, for which the TGI in the experiment on SF-539 CNS, in the experiment on SW-620 colon, in the experiment with HOP-92 NSCLC, with NCI-H522 lung, in the experiment with HOP-62 NSCLC and in the experiment on RXF 393 renal was greater than 100 µM each time. This compound gave a TGI in the experiment on NCI-H460 lung greater than 100 µM.
For the compound `CCOc1ccc(NCC2CC/C(=C\c3ccccc3OC)C2=O)cc1` (stereo not given), the TGI is 23.9 µM in the experiment on SF-539 CNS; 14.3 µM with SW-620 colon; 25.4 µM in the experiment on CAKI-1 renal; 34 µM with HOP-92 NSCLC; 4.36 µM in the experiment with NCI-H522 lung; greater than 57.8 µM in the experiment with HOP-62 NSCLC. Moreover, in the experiment on RXF 393 renal, the TGI was determined as 21.4 µM.
With `O=C1C=Cc2c1ccc1ccccc21`, the GI50 with SW-620 colon is 44.3 µM; in the experiment on CAKI-1 renal it was 11.1 µM; with NCI-H522 lung, 27.6 µM; in the experiment on MDA-MB-231 breast, 15 µM; in the experiment with HOP-62 NSCLC, 14.3 µM; in the experiment on NCI-H460 lung, 35.7 µM. For the same compound, the TGI is greater than 100 µM in the experiment with SW-620 colon; 33 µM in the experiment on CAKI-1 renal; greater than 100 µM with NCI-H522 lung; 53.6 µM in the experiment on MDA-MB-231 breast; 50 µM in the experiment on HOP-62 NSCLC; greater than 100 µM in the experiment on NCI-H460 lung.
Turning to `O=S(=O)(N=NC=C1c2ccccc2N(O)c2ccccc21)c1ccc(Cl)cc1`, the TGI in the experiment on SW-620 colon, with CAKI-1 renal, with HOP-92 NSCLC, with NCI-H522 lung, in the experiment on HOP-62 NSCLC and with NCI-H460 lung was greater than 100 µM throughout.
With `N#CC(C#N)=Cc1ccc(CP(=O)(O)O)cc1`, the TGI with SF-539 CNS, with SW-620 colon, in the experiment with CAKI-1 renal, with HOP-92 NSCLC, with NCI-H522 lung and in the experiment with HOP-62 NSCLC was greater than 100 µM in each case. Also, the TGI with NCI-H460 lung is greater than 100 µM.
Turning to `CC(=O)NNc1nc(C)c(C(=O)/C=C/c2ccc(Cl)cc2)s1`, the TGI with SF-539 CNS, in the experiment on SW-620 colon, with CAKI-1 renal, in the experiment on HOP-92 NSCLC, in the experiment with NCI-H522 lung and in the experiment with HOP-62 NSCLC was greater than 100 µM throughout. For the same compound, the TGI in the experiment on RXF 393 renal and with NCI-H460 lung was greater than 100 µM in each case.
As for `CCCCc1c2cnccc2c(CCCC)c2c1[nH]c1ccccc12`, the TGI with SF-539 CNS was 12.6 µM; in the experiment on SW-620 colon, greater than 100 µM; in the experiment with CAKI-1 renal it was 30.2 µM; with HOP-92 NSCLC it was 47.7 µM; with NCI-H522 lung, 58.2 µM; with HOP-62 NSCLC, 18.8 µM. The TGI was 24.9 µM with RXF 393 renal and greater than 100 µM with NCI-H460 lung.
As to `CCCN(CCC)C(=O)c1nc(N)nc(-c2ccc(OC)cc2)c1-c1ccc(OC)cc1`, the TGI in the experiment with SF-539 CNS, in the experiment on SW-620 colon, in the experiment on CAKI-1 renal, with HOP-92 NSCLC, in the experiment with NCI-H522 lung and with NCI-H460 lung was greater than 100 µM in each case.
As for `CC(C(=O)c1ccccc1)C1(O)C(=O)Nc2ccc(Cl)cc21` (stereo not given), the TGI in the experiment with SF-539 CNS, in the experiment with SW-620 colon, in the experiment on CAKI-1 renal, in the experiment with HOP-92 NSCLC, in the experiment with HOP-62 NSCLC and in the experiment on RXF 393 renal was greater than 100 µM each time. Moreover, the TGI in the experiment on NCI-H460 lung was greater than 100 µM.
Regarding `O=C(Nc1ccccc1-c1nn(CN2CCNCC2)c(=S)n(CN2CCNCC2)c1=O)C(F)(F)F`, the TGI came out at 35.3 µM in the experiment on SF-539 CNS; 22.2 µM in the experiment on SW-620 colon; 55.2 µM with CAKI-1 renal; 45.8 µM in the experiment on HOP-92 NSCLC; 46.6 µM in the experiment with HOP-62 NSCLC; 30.3 µM in the experiment on RXF 393 renal. The compound further showed a TGI in the experiment on NCI-H460 lung of 53.3 µM.
Consider `COc1cc2c(cc1OC)C1Cc3ccc(OC)c(OC)c3C[N+]1([O-])CC2` (stereo not given), for which the TGI in the experiment with SF-539 CNS, with SW-620 colon, in the experiment with CAKI-1 renal, in the experiment with NCI-H522 lung, in the experiment on HOP-62 NSCLC and with NCI-H460 lung was greater than 100 µM in each case.
In the case of `OC12c3ccccc3C1CCCCCCCCCC21OCCO1` (stereo not given), the TGI in the experiment with SF-539 CNS, in the experiment with SW-620 colon, in the experiment on CAKI-1 renal, in the experiment on NCI-H522 lung, in the experiment on HOP-62 NSCLC and with RXF 393 renal was greater than 100 µM each time. The compound further came in with a TGI in the experiment with NCI-H460 lung greater than 100 µM.
